Reference: US20030236439A1, “Non-steroidal analogs of 2-methoxyestradiol” (priority 2002, published 2003)

Tests used:
[1] = test system: chick embryo chorioallantoic membrane; assay: chick embryo chorioallantoic membrane (CAM) assay; type: in vivo; conditions: 100 μg methylcellulose disk, after 48 hours
Source text: Anti-proliferative activity can be evaluated in situ by testing the ability of the new non-steroidal estradiol analogs to inhibit the proliferation of new blood vessel cells (angiogenesis). A suitable assay is the chick embryo chorioallantoic membrane (CAM) assay described by Crum et al. Science 230:1375 (1985). See also, U.S. Pat. No. 5,001,116, hereby incorporated by reference, which describes the CAM assay. Briefly, fertilized chick embryos are removed from their shell on day 3 or 4, and a methylcellulose disc containing the drug is implanted on the chorioallantoic membrane. The embryos are examined 48 hours later and, if a clear avascular zone appears around the methylcellulose disc, the diameter of that zone is measured.

MCF-7 cell = conditions: in vitro, over a wide range of concentrations; cited from earlier work
[2] = test system: vascular endothelial cell proliferation; conditions: vascular endothelial vs tumor cell proliferation; cited from earlier work

Structure (SMILES)	effect on cell mitosis and growth of new blood vessels (avascular zone) [1]	estrogenic activity (MCF-7 cell)	half-maximal inhibition of endothelial cell proliferation at lower concentration than tumor cell proliferation [2]
COc1cc2c(cc1O)CC[C@@H]1[C@@H]2CC[C@]2(C)[C@@H](O)CC[C@@H]12 [2-methoxyestradiol]	inhibit cell mitosis and the growth of new blood vessels	not estrogenic	
CO[C@@H]1[C@H](OC(=O)NC(=O)CCl)CC[C@]2(CO2)[C@H]1[C@@]1(C)O[C@@H]1CC=C(C)C [AGM-1470]			4 logs
